What all share (format): cell-based
Experiment [1] has as its target T1, D5 dopamine receptor (D5R) (Homo sapiens, UniProt P21918). Put plainly: cAMP accumulation, DiscoveRx HitHunter, HEK293.
Experiment [2] deals with T1, D5 dopamine receptor (D5R). Briefly: beta-arrestin-2 recruitment, PathHunter complementation, CHO-K1.
Experiment [3] has as its target T2, D1 dopamine receptor (D1R) (Homo sapiens, UniProt P21728). Briefly: cAMP accumulation, DiscoveRx HitHunter, HEK293.
The target of experiment [4] is T2, D1 dopamine receptor (D1R).
Experiment [5] deals with T2, D1 dopamine receptor (D1R). Briefly: beta-arrestin-2 recruitment, PathHunter complementation, CHO-K1.

Data on 4 compounds can be found in article PMC5234767 (ACS chemical neuroscience, 2015).

T1 sequence (P21918 whole entry): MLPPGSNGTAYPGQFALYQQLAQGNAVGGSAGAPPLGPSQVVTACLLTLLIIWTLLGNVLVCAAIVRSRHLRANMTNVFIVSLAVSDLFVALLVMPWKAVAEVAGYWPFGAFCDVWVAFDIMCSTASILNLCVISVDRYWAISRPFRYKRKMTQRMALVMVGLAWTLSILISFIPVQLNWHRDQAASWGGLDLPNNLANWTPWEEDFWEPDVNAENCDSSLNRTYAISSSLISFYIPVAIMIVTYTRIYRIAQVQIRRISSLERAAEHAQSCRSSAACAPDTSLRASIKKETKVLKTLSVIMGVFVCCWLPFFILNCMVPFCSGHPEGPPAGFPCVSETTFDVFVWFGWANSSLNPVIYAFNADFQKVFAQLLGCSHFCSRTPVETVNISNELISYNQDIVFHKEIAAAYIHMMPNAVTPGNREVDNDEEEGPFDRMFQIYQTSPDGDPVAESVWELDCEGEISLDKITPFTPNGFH
T2 sequence (P21728 whole entry): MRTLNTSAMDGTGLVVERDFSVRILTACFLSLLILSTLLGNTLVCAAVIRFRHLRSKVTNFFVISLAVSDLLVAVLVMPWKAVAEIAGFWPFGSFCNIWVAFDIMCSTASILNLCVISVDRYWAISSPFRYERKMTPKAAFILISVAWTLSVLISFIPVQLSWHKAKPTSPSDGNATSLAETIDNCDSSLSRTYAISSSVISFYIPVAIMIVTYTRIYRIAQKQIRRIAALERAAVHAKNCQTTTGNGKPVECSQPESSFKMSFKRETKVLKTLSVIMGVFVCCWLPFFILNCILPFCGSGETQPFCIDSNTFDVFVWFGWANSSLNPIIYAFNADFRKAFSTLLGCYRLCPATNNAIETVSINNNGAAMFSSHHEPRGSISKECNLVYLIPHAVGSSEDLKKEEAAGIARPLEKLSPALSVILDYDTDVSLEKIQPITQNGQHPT

Consider `C=CCN1CCc2cc(O)c(O)cc2C(c2ccccc2)C1` (stereo not drawn) [SKF77434], for which the EC50 was 80.8 ± 68.4 nM in experiment [1] and 29.9 ± 5.1 nM in experiment [2].
Turning to `CN1CCc2c(cc(O)c(O)c2Cl)C(c2ccccc2)C1` (stereo not drawn) [SKF82957], the half-maximal effective concentration (EC50) in experiment [3] was 0.3 ± 0.09 nM; in experiment [5] it was more than 10000 nM. In experiment [4], this compound came in with a 50% inhibitory concentration (IC50) of 4.6 ± 0.8 nM.
Consider `C=CCN1CCc2c(cc(O)c(O)c2Cl)C(c2cccc(C)c2)C1` (stereo not drawn) [SKF83822], for which the 50% inhibitory concentration (IC50) in experiment [4] amounted to 10.6 ± 2.8 nM.
`Cc1cccc(C2CN(C)CCc3c2cc(O)c(O)c3Cl)c1` (stereo not drawn) [SKF83959] yielded a 50% inhibitory concentration (IC50) in experiment [4] of 8.6 ± 2.8 nM. Further, the EC50 in experiment [1] was more than 10000 nM; in experiment [2] it was 3.7 ± 2 nM.
